{
  "source": "paper PMC8459971",
  "about": "“Evaluation of the hepatotoxicity of the novel GPR40 (FFAR1) agonist CPL207280 in the rat and monkey” (PLoS ONE, 2021)",
  "key": {"[1]": {"system": "HepG2 cells", "experiment": "Respiration in hepatocytes (Seahorse XF Mito stress test)", "type": "cell-based, human", "details": "for oxygen consumption rate, mito stress tracing: Fig2 A; for ECAR (Extracellular Acidification Rate) / OCR (Basal Oxygen Consumption rate): replicates"}, "[2]": {"experiment": "Stability in microsomes, mouse", "type": "in vitro ADME", "details": "for average DEG [%]: mouse microsomes, with cofactors", "description": "The final incubation volume was 500 μL. Two control compounds (verapamil and donepezil) were included for each microsomal species, along with the appropriate vehicle control. The reactions were terminated by transferring 50 μL of incubate to 100 μL methanol containing an internal standard (metoprolol) at appropriate time points (0, 10, 20, 40, 60, and 120 min for the test compound and 0, 5, 10, 20, 40, and 60 min for the control compounds). The termination plates were centrifuged at 4000 x g at 4°C for 30 min to precipitate the protein. The supernatants were then collected for analysis, and LC-MS/MS was used for detection purposes. The system consisted of an Acquity™ Binary Solvent Manager, Acquity™ 4-position heated column manager, 2777 Ultra High Pressure Autosampler, and a Xevo-TQ MS triple quadrupole mass spectrometer (Waters Ltd., Herts, UK). This process was carried out twice."}, "[3]": {"details": "Mouse (CD) microsomes, mean n = 2"}},
  "note": "Where “and” joins values, the source holds several entries; their conditions need not be identical. Equal entries are not always repeated.",
  "data": [
    {"compound": "CC#C[C@@H](CC(=O)O)c1ccc(OCC(C)=C(C)C)cc1", "note": "[CPL207280]", "values": [
      {"measurement": "oxygen consumption rate, mito stress tracing", "setting": "[1]; HepG2, 1 uM, 41.3548 min", "value": "47.2411 and 41.158 and 37.0741"},
      {"measurement": "oxygen consumption rate, mito stress tracing", "setting": "[1]; HepG2, 1 uM, 47.9665 min", "value": "46.2402 and 40.9403 and 37.3629"},
      {"measurement": "oxygen consumption rate, mito stress tracing", "setting": "[1]; HepG2, 1 uM, 54.5812 min", "value": "47.0103 and 40.8472 and 36.7203"},
      {"measurement": "oxygen consumption rate, mito stress tracing", "setting": "[1]; HepG2, 1 uM, 61.2916 min", "value": "170.96 and 125.782 and 138.858"},
      {"measurement": "oxygen consumption rate, mito stress tracing", "setting": "[1]; HepG2, 1 uM, 67.9128 min", "value": "139.39 and 102.287 and 110.384"},
      {"measurement": "oxygen consumption rate, mito stress tracing", "setting": "[1]; HepG2, 1 uM, 74.5347 min", "value": "123.934 and 92.2309 and 99.0802"},
      {"measurement": "oxygen consumption rate, mito stress tracing", "setting": "[1]; HepG2, 10 uM, 34.6705 min", "value": "110.191 and 84.6025 and 86.6099"},
      {"measurement": "oxygen consumption rate, mito stress tracing", "setting": "[1]; HepG2, 10 uM, 41.3548 min", "value": "53.0343 and 43.3081 and 40.0605"},
      {"measurement": "oxygen consumption rate, mito stress tracing", "setting": "[1]; HepG2, 10 uM, 47.9665 min", "value": "52.304 and 44.0598 and 40.3019"},
      {"measurement": "oxygen consumption rate, mito stress tracing", "setting": "[1]; HepG2, 10 uM, 54.5812 min", "value": "53.3375 and 43.9407 and 40.3833"},
      {"measurement": "oxygen consumption rate, mito stress tracing", "setting": "[1]; HepG2, 10 uM, 61.2916 min", "value": "205.106 and 144.168 and 145.662"},
      {"measurement": "oxygen consumption rate, mito stress tracing", "setting": "[1]; HepG2, 10 uM, 67.9128 min", "value": "156.881 and 114.329 and 108.157"},
      {"measurement": "oxygen consumption rate, mito stress tracing", "setting": "[1]; HepG2, 10 uM, 74.5347 min", "value": "137.02 and 102.413 and 95.1094"},
      {"measurement": "oxygen consumption rate, mito stress tracing", "setting": "[1]; HepG2, 30 uM, 34.6705 min", "value": "92.7755 and 86.7994 and 98.474"},
      {"measurement": "oxygen consumption rate, mito stress tracing", "setting": "[1]; HepG2, 30 uM, 41.3548 min", "value": "47.1023 and 44.4378 and 48.0839"},
      {"measurement": "oxygen consumption rate, mito stress tracing", "setting": "[1]; HepG2, 30 uM, 47.9665 min", "value": "46.5085 and 44.5297 and 49.242"},
      {"measurement": "oxygen consumption rate, mito stress tracing", "setting": "[1]; HepG2, 30 uM, 54.5812 min", "value": "47.3133 and 45.4103 and 49.1801"},
      {"measurement": "oxygen consumption rate, mito stress tracing", "setting": "[1]; HepG2, 30 uM, 61.2916 min", "value": "166.246 and 150.833 and 168.619"},
      {"measurement": "oxygen consumption rate, mito stress tracing", "setting": "[1]; HepG2, 30 uM, 67.9128 min", "value": "122.701 and 115.579 and 125.99"},
      {"measurement": "oxygen consumption rate, mito stress tracing", "setting": "[1]; HepG2, 30 uM, 74.5347 min", "value": "107.636 and 100.89 and 113.574"},
      {"measurement": "oxygen consumption rate, mito stress tracing", "setting": "[1]; HepG2, 100 uM, 34.6705 min", "value": "67.4412 and 69.6068 and 55.4444"},
      {"measurement": "oxygen consumption rate, mito stress tracing", "setting": "[1]; HepG2, 100 uM, 41.3548 min", "value": "37.8597 and 39.5148 and 33.1927"},
      {"measurement": "oxygen consumption rate, mito stress tracing", "setting": "[1]; HepG2, 100 uM, 47.9665 min", "value": "37.9692 and 40.1535 and 34.8525"},
      {"measurement": "oxygen consumption rate, mito stress tracing", "setting": "[1]; HepG2, 100 uM, 54.5812 min", "value": "38.5804 and 40.5605 and 35.0114"},
      {"measurement": "oxygen consumption rate, mito stress tracing", "setting": "[1]; HepG2, 100 uM, 61.2916 min", "value": "98.1667 and 106.839 and 80.4832"},
      {"measurement": "oxygen consumption rate, mito stress tracing", "setting": "[1]; HepG2, 100 uM, 67.9128 min", "value": "74.25 and 83.2846 and 59.4526"},
      {"measurement": "ECAR (Extracellular Acidification Rate)", "setting": "[1]; HepG2, 0.3 uM", "value": "0.9978 and 0.9743 and 0.8743"},
      {"measurement": "OCR (Basal Oxygen Consumption rate)", "setting": "[1]; HepG2, 0.3 uM", "value": "0.9555 and 0.9023 and 1.068"},
      {"measurement": "ECAR (Extracellular Acidification Rate)", "setting": "[1]; HepG2, 1 uM", "value": "0.9613 and 0.9697 and 0.955"},
      {"measurement": "OCR (Basal Oxygen Consumption rate)", "setting": "[1]; HepG2, 1 uM", "value": "0.9695 and 0.8683 and 1.043"},
      {"measurement": "ECAR (Extracellular Acidification Rate)", "setting": "[1]; HepG2, 10 uM", "value": "1.014 and 1.053 and 0.9962"},
      {"measurement": "OCR (Basal Oxygen Consumption rate)", "setting": "[1]; HepG2, 10 uM", "value": "1.0176 and 0.8931 and 1.143"},
      {"measurement": "ECAR (Extracellular Acidification Rate)", "setting": "[1]; HepG2, 30 uM", "value": "0.995 and 1.079 and 1.004"},
      {"measurement": "OCR (Basal Oxygen Consumption rate)", "setting": "[1]; HepG2, 30 uM", "value": "1.014 and 0.9586 and 1.1505"},
      {"measurement": "ECAR (Extracellular Acidification Rate)", "setting": "[1]; HepG2, 100 uM", "value": "1.11 and 1.113 and 1.179"},
      {"measurement": "OCR (Basal Oxygen Consumption rate)", "setting": "[1]; HepG2, 100 uM", "value": "1.005 and 0.9369 and 1.04"},
      {"measurement": "EC50 of acidification of media (ECAR)", "setting": "[1]; HepG2, Seahorse XF", "value": "absent"},
      {"measurement": "effect on ATP synthesis", "setting": "[1]; HepG2, Seahorse XF", "value": "did not alter ATP synthesis"},
      {"measurement": "effect on oxygen consumption rate / basal respiration", "setting": "[1]; HepG2, Seahorse XF", "value": "reduced basal and maximal respiration at the highest concentration of 100 μM"},
      {"measurement": "effect on respiration", "setting": "[1]; hepatocytes, Seahorse XF, 100 μM", "value": "slight respiration inhibition"},
      {"measurement": "half-life at 3 μM", "setting": "[2]; [3]", "value": 1.93, "unit": "h"},
      {"measurement": "microsomal CLint at 3 μM", "setting": "[2]; [3]", "value": 11.9, "unit": "µL/min/mg"},
      {"measurement": "average DEG [%]", "setting": "[2]; 0 min", "value": 100.0, "unit": "%"},
      {"measurement": "average DEG [%]", "setting": "[2]; 20 min", "value": 83.3, "unit": "%"},
      {"measurement": "average DEG [%]", "setting": "[2]; 40 min", "value": 69.8, "unit": "%"},
      {"measurement": "average DEG [%]", "setting": "[2]; 60 min", "value": 71.2, "unit": "%"}
    ]}
  ]
}
